Assays:
[1] = target: p300 HAT domain (residues 1287-1666) (Homo sapiens (Human), UniProt Q09472); experiment: p300 HAT SPA assay (scintillation proximity assay, acetylation of biotinylated H3(1-21) peptide); assay type: biochemical; details: average of at least 2 replicate titrations
In short: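 Scintillation proximity readout of acetylated biotin-H3(1-21) captured on streptavidin plates after 1.5 hr at RT; enzyme was Ni2+/anion-exchange-purified HAT domain in 20 mM Hepes pH 7.5. Inhibitor IC50s calculated from the data.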

full length p300 = full length p300 (Homo sapiens (Human), UniProt Q09472); experiment: full length p300 SPA assay; assay type: biochemical; details: average of at least 2 replicate titrations, read-out: FL P300 IC50
Protocol: Reactions were initiated with 12.5 μL 2 μM biotinylated H3(1-21) peptide (New England Peptide) and run for 1 hr at RT, then quenched with 20 μL stop solution (200 mM Tris pH 8.0, 200 mM EDTA, 2M NaCl, 160 μM anacardic acid). 35 μL of the reaction volume was transferred to a 384-well streptavidin FlashPlate (PerkinElmer) using a Bravo liquid handler (Velocity 11) and incubated for 1.5 hr at RT. Plates were aspirated, washed with 95 μL wash buffer (15 mM Tris pH 8.5, 0.069 μM Brij-35), aspirated, sealed, and scintillation counts read on a Topcount (PerkinElmer). Data were analyzed in Genedata to determine inhibitor IC50 values.
The full length p300 SPA assay was run following the same protocol as p300 HAT SPA assay, but used 6 nM purified full length p300 (purchased from Active Motif) in place of the purified p300-HAT domain.

Chain of p300 HAT domain (residues 1287-1666) (Q09472 1287-1666): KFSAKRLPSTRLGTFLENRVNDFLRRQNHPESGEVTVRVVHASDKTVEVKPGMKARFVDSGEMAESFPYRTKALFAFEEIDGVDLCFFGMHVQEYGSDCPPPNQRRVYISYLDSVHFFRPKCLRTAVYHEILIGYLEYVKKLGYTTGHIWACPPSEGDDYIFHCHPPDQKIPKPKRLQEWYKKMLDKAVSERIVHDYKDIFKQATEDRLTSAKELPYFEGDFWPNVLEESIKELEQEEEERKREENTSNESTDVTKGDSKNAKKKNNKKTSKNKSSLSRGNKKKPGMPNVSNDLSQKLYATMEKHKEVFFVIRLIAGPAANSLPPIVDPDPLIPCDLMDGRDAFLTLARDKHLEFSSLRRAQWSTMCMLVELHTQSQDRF
Chain of full length p300 (Q09472 whole entry): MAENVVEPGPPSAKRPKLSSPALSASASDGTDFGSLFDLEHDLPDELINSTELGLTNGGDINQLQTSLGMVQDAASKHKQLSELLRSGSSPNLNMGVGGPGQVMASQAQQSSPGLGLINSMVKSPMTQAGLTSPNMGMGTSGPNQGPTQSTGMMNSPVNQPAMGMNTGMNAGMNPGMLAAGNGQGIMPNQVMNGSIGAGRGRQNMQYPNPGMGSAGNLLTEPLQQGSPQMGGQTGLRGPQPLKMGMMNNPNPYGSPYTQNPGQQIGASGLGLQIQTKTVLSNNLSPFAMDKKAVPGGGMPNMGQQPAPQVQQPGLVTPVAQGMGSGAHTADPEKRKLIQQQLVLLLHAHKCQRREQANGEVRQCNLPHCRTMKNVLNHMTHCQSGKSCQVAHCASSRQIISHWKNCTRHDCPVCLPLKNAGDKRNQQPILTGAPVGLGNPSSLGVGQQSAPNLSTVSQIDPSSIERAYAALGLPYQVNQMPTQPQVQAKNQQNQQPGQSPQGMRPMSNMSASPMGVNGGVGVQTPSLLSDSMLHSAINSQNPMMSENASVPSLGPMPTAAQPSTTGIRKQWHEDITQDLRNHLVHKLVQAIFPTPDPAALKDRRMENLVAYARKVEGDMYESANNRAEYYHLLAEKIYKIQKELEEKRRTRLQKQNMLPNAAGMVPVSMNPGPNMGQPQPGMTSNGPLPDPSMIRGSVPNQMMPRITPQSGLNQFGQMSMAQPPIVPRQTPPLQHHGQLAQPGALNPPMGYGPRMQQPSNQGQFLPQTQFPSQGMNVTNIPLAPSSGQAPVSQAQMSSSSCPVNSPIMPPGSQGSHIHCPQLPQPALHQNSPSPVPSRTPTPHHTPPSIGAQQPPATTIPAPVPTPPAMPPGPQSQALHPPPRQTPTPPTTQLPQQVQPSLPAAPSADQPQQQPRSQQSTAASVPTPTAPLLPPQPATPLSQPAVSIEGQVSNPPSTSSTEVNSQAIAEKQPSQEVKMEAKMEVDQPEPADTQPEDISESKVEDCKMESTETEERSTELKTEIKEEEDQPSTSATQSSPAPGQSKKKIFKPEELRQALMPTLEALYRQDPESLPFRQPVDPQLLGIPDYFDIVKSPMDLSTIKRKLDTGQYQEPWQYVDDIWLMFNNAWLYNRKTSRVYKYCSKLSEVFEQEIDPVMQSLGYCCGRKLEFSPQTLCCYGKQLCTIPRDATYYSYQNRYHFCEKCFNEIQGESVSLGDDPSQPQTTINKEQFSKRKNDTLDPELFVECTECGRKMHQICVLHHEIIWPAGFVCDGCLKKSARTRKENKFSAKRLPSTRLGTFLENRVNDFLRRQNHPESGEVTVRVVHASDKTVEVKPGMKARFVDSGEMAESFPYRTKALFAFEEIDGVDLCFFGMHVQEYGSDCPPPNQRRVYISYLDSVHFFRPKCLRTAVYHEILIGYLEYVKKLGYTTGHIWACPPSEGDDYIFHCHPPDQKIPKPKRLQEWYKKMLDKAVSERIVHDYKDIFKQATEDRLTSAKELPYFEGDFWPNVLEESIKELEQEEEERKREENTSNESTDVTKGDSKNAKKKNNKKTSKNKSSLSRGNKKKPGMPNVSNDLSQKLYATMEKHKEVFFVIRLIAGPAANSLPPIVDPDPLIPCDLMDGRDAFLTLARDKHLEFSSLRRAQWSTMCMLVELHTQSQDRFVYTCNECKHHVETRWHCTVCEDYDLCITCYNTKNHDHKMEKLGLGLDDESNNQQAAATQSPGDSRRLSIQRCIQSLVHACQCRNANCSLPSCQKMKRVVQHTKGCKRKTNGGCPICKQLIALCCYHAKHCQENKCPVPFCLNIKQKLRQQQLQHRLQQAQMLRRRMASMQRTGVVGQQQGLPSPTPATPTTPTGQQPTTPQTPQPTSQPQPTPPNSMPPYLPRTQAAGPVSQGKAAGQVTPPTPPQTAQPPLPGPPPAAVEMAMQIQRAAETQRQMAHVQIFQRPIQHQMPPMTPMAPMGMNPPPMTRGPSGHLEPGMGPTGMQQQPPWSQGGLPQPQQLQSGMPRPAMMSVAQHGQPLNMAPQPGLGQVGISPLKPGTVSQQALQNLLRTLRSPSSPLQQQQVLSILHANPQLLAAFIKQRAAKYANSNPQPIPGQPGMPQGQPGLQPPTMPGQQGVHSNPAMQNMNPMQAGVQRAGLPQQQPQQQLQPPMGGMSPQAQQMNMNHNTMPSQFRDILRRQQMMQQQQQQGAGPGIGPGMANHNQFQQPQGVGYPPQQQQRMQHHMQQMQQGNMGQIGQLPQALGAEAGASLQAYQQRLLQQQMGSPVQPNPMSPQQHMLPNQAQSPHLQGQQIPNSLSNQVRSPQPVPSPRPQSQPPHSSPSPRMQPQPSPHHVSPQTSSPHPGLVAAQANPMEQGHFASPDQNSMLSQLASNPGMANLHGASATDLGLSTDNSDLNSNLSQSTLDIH

SMILES | IC50 [1] | IC50 (full length p300)
Cn1cc(-c2cnc(NC(=O)C(NCCc3ccc(C#N)cc3)c3ccccc3)c(F)c2)cn1 (single isomer, unassigned) [75 Isomer 1] | 149 nM | 4.2 nM
Cc1ccn(-c2ccc(NC(=O)C(NCC(C)c3ccc(C#N)cc3)c3ccccc3)nc2)n1 (single isomer, unassigned) [61 Isomer 3] | 31.5 nM | < 2 nM
Cc1cnn(-c2ccc(NC(=O)C(NCC(C)c3ccc(C#N)cc3)c3ccccc3)nc2)c1 (single isomer, unassigned) [62 Isomer 1] | > 2000 nM | 224 nM
Cc1ccc(CCNC(C(=O)Nc2ccc(-c3cnn(C)c3)cn2)c2ccccc2)cc1 (single isomer, unassigned) [48 Isomer 2] | 1560 nM | 31.8 nM
COC1(C)CCN(c2ccc(NC(=O)C(NCCc3ccc(C#N)cc3)c3ccccc3)nc2)CC1 (single isomer, unassigned) [53 Isomer 1] | 121 nM | 5.16 nM
C[C@H](CNC(C(=O)Nc1ccc(-c2ccn(C)c(=O)c2)cn1)c1ccccc1)c1ccc(C#N)cc1 (single isomer, unassigned) [105 Isomer 2] | 16.4 nM | 0.7 nM
Cc1cnn(-c2ccc(NC(=O)C(NCC(C)c3ccc(C#N)cc3)c3ccccc3)nc2)c1 (single isomer, unassigned) [62 Isomer 4] | 52.6 nM | < 2 nM
Cc1cnn(-c2ccc(NC(=O)C(NCC(C)c3ccc(C#N)cc3)c3ccccc3)nc2)c1 (single isomer, unassigned) [62 Isomer 3] | > 2000 nM | 618 nM
Cn1cc(-c2cnc(NC(=O)C(NCCc3ccc(C#N)cc3)c3ccccc3)cc2F)cn1 (single isomer, unassigned) [74 Isomer 1] | > 2000 nM | 214 nM
COC1(C)CCN(c2ccc(NC(=O)C(NCCc3ccc(C#N)cc3)c3ccccc3)nc2)CC1 (single isomer, unassigned) [53 Isomer 2] | > 2000 nM | > 1000 nM
N#Cc1ccc(CCNC(C(=O)Nc2ccc(-c3ccccc3)cn2)c2ccccc2)cc1 (single isomer, unassigned) [34 Isomer 2] | 361 nM | 11 nM
Cn1cc(-c2cccc(NC(=O)C(NCCc3ccc(C#N)cc3)c3ccccc3)n2)cn1 (single isomer, unassigned) [123 Isomer 1] | > 2000 nM | 2020 nM
Cc1nn(C)c(C)c1-c1ccc(NC(=O)C(NC[C@@H](C)c2ccc(C#N)cc2)c2ccccc2)nc1 (single isomer, unassigned) [130 Isomer 2] | 14 nM | < 3.24 nM
CN1CCN(c2ccc(NC(=O)C(NCCc3ccc(C#N)cc3)c3ccccc3)nc2)CC1=O (single isomer, unassigned) [44 Isomer 1] | > 2000 nM | 278 nM
Cc1c(-c2ccc(NC(=O)C(NC[C@@H](C)c3ccc(C#N)cc3)c3ccccc3)nc2)cnn1C (single isomer, unassigned) [114 Isomer 2] | 10.5 nM | 0.73 nM
CNC(=O)Cn1cc(-c2ccc(NC(=O)C(NC[C@@H](C)c3ccc(C#N)cc3)c3ccccc3)nc2)cn1 (single isomer, unassigned) [146 Isomer 1] | 993 nM | 
CO[C@H]1CCN(c2ccc(NC(=O)C(NCC(C)c3ccc(C#N)cc3)c3ccccc3)nc2)C1 (single isomer, unassigned) [93 Isomer 3] | 36 nM | 
N#Cc1ccc(CCNC(C(=O)Nc2ccc(N3CC4(COC4)C3)cn2)c2ccccc2)cc1 (single isomer, unassigned) [80 Isomer 2] | > 2000 nM | 
CC(CNC(C(=O)Nc1ccc(N2CCN(C)C(=O)C2)cn1)c1ccccc1)c1ccc(C#N)cc1 (single isomer, unassigned) [101 Isomer 2] | 245 nM | 
Cc1ncc(C(C)CNC(C(=O)Nc2ccc(-c3cnn(C)c3)cn2)c2ccccc2)cn1 (single isomer, unassigned) [150 Isomer 3] | > 2000 nM | 

SMILES | IC50 [1] | IC50 (full length p300)
Cc1ccc(C(C)CNC(C(=O)Nc2ccc(-c3cnn(C)c3)cn2)c2ccccc2)cn1 (single isomer, unassigned) [143 Isomer 3] | > 2000 nM | 
CC(CNC(C(=O)Nc1ccc(-c2cnn(C)c2)cc1)c1ccccc1)c1ccc(Cl)cc1 (single isomer, unassigned) [2 Isomer 3] | 2740 nM | 
N#Cc1ccc(CCNC(C(=O)Nc2ccc(C3CCC3)cn2)c2ccccc2)cc1 (single isomer, unassigned) [46 Isomer 1] | > 5000 nM | 
CN1CCN(c2ccc(NC(=O)C(NCCc3ccc(C#N)cc3)c3ccccc3)cn2)CC1 (single isomer, unassigned) [36 Isomer 1] | 3270 nM | 
CC(CNC(C(=O)Nc1ccc(-c2cnn(C(C)(C)C#N)c2)cn1)c1ccccc1)c1ccc(C#N)cc1 (single isomer, unassigned) [47 Isomer 2] | 24.2 nM | 
CC(CNC(C(=O)Nc1ccc(N2CCN(C)C(=O)C2)cn1)c1cnn(C)c1)c1ccc(C#N)cc1 (single isomer, unassigned) [136 Isomer 4] | > 2000 nM | 
N#Cc1ccc(CCNC(C(=O)Nc2ccn(C3CCOCC3)n2)c2ccccc2)cc1 (single isomer, unassigned) [30 Isomer 1] | > 5000 nM | 
Cn1cc(-c2cnc(NC(=O)C(NCCc3ccc(C#N)cc3)c3ccccc3)c(Cl)c2)cn1 (single isomer, unassigned) [43 Isomer 2] | > 5000 nM | 
CC(CNC(C(=O)Nc1ccc(-c2cnn(C)c2)cn1)c1cnn(C)c1)c1ccc(C#N)cc1 (single isomer, unassigned) [127 Isomer 2] | > 2000 nM | 
C[C@H](CNC(C(=O)Nc1ccc(-c2cc(=O)n(C)cn2)cn1)c1ccccc1)c1ccc(C#N)cc1 (single isomer, unassigned) [106 Isomer 2] | 25.5 nM | 
Cn1cc(-c2ccc(NC(=O)C(NCCc3ccc(C#N)cc3)c3ccc(C#N)cc3)nc2)cn1 (single isomer, unassigned) [119 Isomer 1] | 374 nM | 
C[C@H](CNC(C(=O)Nc1ccc(-c2cnn(CC(=O)N(C)C)c2)cn1)c1cccc(F)c1)c1ccc(C#N)cc1 (single isomer, unassigned) [138 Isomer 1] | 435 nM | 
N#Cc1ccc(CCNC(C(=O)Nc2ccc(N3CCC4(COC4)C3)cn2)c2ccccc2)cc1 (single isomer, unassigned) [96 Isomer 2] | > 2000 nM | 
Cn1cc(-c2ccc(NC(=O)C(NCCc3ccc(C#N)cc3)c3ccccc3)cc2Cl)cn1 (single isomer, unassigned) [27 Isomer 2] | > 5000 nM | 
Cn1cc(-c2ccc(NC(=O)C(NCCc3ccc(C#N)cc3)c3cccc(C#N)c3)nc2)cn1 (single isomer, unassigned) [116 Isomer 2] | > 2000 nM | 
CC(CNC(C(=O)Nc1ccc(-n2cnc(C(C)(C)C)c2)cn1)c1ccccc1)c1ccc(C#N)cc1 (single isomer, unassigned) [59 Isomer 1] | 1500 nM | 
Cn1cc(-c2ccc(NC(=O)C(NCC(c3ccc(C#N)cc3)C(F)(F)F)c3ccccc3)nc2)cn1 (single isomer, unassigned) [149 Isomer 1] | > 2000 nM | 
COC1CCN(c2ccc(NC(=O)C(NCCc3ccc(C#N)cc3)c3ccccc3)nc2)CC1 (single isomer, unassigned) [66 Isomer 1] | 144 nM | 
CC1CN(C)C(=O)CN1c1ccc(NC(=O)C(NC[C@@H](C)c2ccc(C#N)cc2)c2ccccc2)nc1 (single isomer, unassigned) [125 Isomer 4] | 19.6 nM | 

Source: patent US11274090B2, “P300/CBP HAT inhibitors” (Constellation Pharmaceuticals, Inc., priority 2018, dated 2022)
